Experiment: Strength and degradation profile of tigecycline 20 mg/mL bulk solutions by reversed phase HPLC (effect of temperature, time, pH, dissolved oxygen; Runs A to O)
Assay type: physicochemical
Conditions: 20 mg/mL
Procedure: The contents of the sample vials are dissolved in diluent. The sample solution is diluted, if necessary, and chromatographed on a reversed phase column using gradient elution. Impurities are determined by comparing the impurity peak areas in the sample preparation chromatogram to the average area of tigecycline peaks in the standard preparation chromatograms obtained concomitantly.
Chromatographic Column—Length about 15 cm, inside diameter about 4.6 mm, packed with Inertsil ODS2, 5 μm size particles or equivalent.
Detector—Ultraviolet spectrophotometric detector capable of operating at 248 nm with a sensitivity of about 0.5 absorbance units full scale.
The results of additional studies to investigate the effect of processing parameters such as temperature, time, and dissolved oxygen content on the purity profile of tigecycline solutions using the following materials, methods and procedures are presented in Tables A to O.
The experiments were run in plastic glove bags under normal laboratory light conditions. Plastic glove boxes will be used to control the headspace of the beakers. The batch size was 200 mL. • 1. Prepare the glove bag with a mixture of nitrogen and air to achieve an oxygen level in the solution as per the design. • 2. Place the jacketed beaker on the magnetic stirrer. Connect it to the cooler. Set the cooler to the desired set point. • 3. Add 200 mL of SWFI in to the beaker. Allow equilibrating. Measure the temperature and oxygen content. When it reaches the desired condition, add accurately weighed API and mix until dissolved. If necessary use spatula to aid dissolution. For pH adjustments, use 4 mL of either 0.1N NaOH or 0.1N HCl and 196 mL of WFI for manufacture. • 4. After complete dissolution, Transfer about 5.5 mL of Solution in vials and stopper them. These vials will be stoppered at the appropriate headspace conditions. Place the vials in appropriate temperature conditions. • 5. Sample the vials at 1, 4, 8, 10, 12 and 24 hours. Send the samples for analysis. Freeze the 10, 12 and 24 samples at −20° C. for analysis the following day. • 6. Measure pH and record color of the solution at each time point. Results
The 1-hour samples were taken directly from the beakers. Samples for later time points were collected in stoppered vials processed in the atmosphere of the bag in order to simulate the headspace conditions then placed in water baths or refrigerator to maintain there respective temperature conditions. This was done to maintain safety in the lab. Disposable plastic glove bags require constant flow of a mixture of nitrogen and air to maintain headspace oxygen level that will result in the desired dissolved oxygen (DO) content in the sample. The pH of samples was measured at each sample points.
Strength and degradation profile was analyzed by HPLC as described above. […] Degradation was slightly higher at higher temperature condition.

[1] = Run #F, 2° C., hours 1,4,8,12,24 at r5-r9, 8 h after preparation
[2] = Run #F, 2° C., hours 1,4,8,12,24 at r5-r9, 12 h after preparation
[3] = Run #F, 2° C., hours 1,4,8,12,24 at r5-r9, 24 h after preparation
[4] = Run #G, 5° C., hours 1,4,8,12,24 at r6-r10, after 4 hours
[5] = Run #G, 5° C., hours 1,4,8,12,24 at r6-r10, after 24 hours
[6] = Run #G, 5° C., hours 1,4,8,12,24 at r16-r20, after 1 hours
[7] = Run #G, 5° C., hours 1,4,8,12,24 at r16-r20, after 4 hours
[8] = Run #G, 5° C., hours 1,4,8,12,24 at r16-r20, after 8 hours
[9] = Run #G, 5° C., hours 1,4,8,12,24 at r16-r20, after 12 hours
[10] = Run #G, 5° C., hours 1,4,8,12,24 at r16-r20, after 24 hours
[11] = Run #H, 5° C., pH 7.9, Oxygen 1.0 mg/L, hours 1,4,8,10,12,24 at r6-r11
[12] = Run #H, 5° C., pH 7.9, Oxygen 1.0 mg/L, hours 1,4,8,10,12,24 at r6-r11, 1 h

With CN(C)c1cc(NC(=O)CNC(C)(C)C)c(O)c2c1C[C@H]1C[C@H]3[C@H](N(C)C)C(O)=C(C(N)=O)C(=O)[C@@]3(O)C(O)=C1C2=O [Tigecycline] the “RRT 1.45” value [1] was 0.09%, the “RRT 1.85 MW = 597” value [1] was 0.08% and the Total [1] was 1.00%. The “RRT 0.74 Epimer” value [2] was 0.18%, the “RRT 1.45” value [2] was 0.08% and the Total [2] was 1.07%. The “RRT 0.74 Epimer” value [3] was 0.19%, the Total [3] was 1.43% and the Strength (Run #G, 5° C., Oxygen = 1.0 mg/mL, hours 1,4,8,12,24 at r6-r10, after 1 hours) was 18.577 mg/mL. It also gave a Strength (Run #G, 5° C., Oxygen = 1.0 mg/mL, hours 1,4,8,12,24 at r6-r10, after 4 hours) of 18.694 mg/mL, a Strength (Run #G, 5° C., Oxygen = 1.0 mg/mL, hours 1,4,8,12,24 at r6-r10, after 8 hours) of 18.487 mg/mL and a Strength (Run #G, 5° C., Oxygen = 1.0 mg/mL, hours 1,4,8,12,24 at r6-r10, after 12 hours) of 18.507 mg/mL. The Strength (Run #G, 5° C., Oxygen = 1.0 mg/mL, hours 1,4,8,12,24 at r6-r10, after 24 hours) was 18.587 mg/mL, the “RRT 1.67 MW = 556” value (Run #G, 5° C., Oxygen = 1.0 mg/mL, hours 1,4,8,12,24 at r16-r20, after 1 hours) was 0.08% and the “RRT 1.67 MW = 556” value (Run #G, 5° C., Oxygen = 1.0 mg/mL, hours 1,4,8,12,24 at r16-r20, after 4 hours) was 0.14%. For the same compound, the “RRT 1.67 MW = 556” value (Run #G, 5° C., Oxygen = 1.0 mg/mL, hours 1,4,8,12,24 at r16-r20, after 8 hours) was 0.17%, the “RRT 1.67 MW = 556” value (Run #G, 5° C., Oxygen = 1.0 mg/mL, hours 1,4,8,12,24 at r16-r20, after 12 hours) was 0.20% and the “RRT 1.67 MW = 556” value (Run #G, 5° C., Oxygen = 1.0 mg/mL, hours 1,4,8,12,24 at r16-r20, after 24 hours) was 0.23%. The “RRT 0.74 Epimer” value (Run #G, 5° C., hours 1,4,8,12,24 at r6-r10, after 1 hours) was 0.16%, the “RRT 0.58” value [4] was 0.07% and the “RRT 0.74 Epimer” value [4] was 0.17%. For the same compound, the “RRT 0.74 Epimer” value (Run #G, 5° C., hours 1,4,8,12,24 at r6-r10, after 8 hours) was 0.18%, the “RRT 0.74 Epimer” value (Run #G, 5° C., hours 1,4,8,12,24 at r6-r10, after 12 hours) was 0.20% and the “RRT 0.58” value [5] was 0.08%. The “RRT 0.74 Epimer” value [5] was 0.21%, the “RRT 1.45” value [6] was 0.08% and the “RRT 1.64 Mino” value [6] was 0.11%. The “RRT 1.85 MW = 597” value [6] was 0.08%, the Total [6] was 0.58% and the “RRT 1.64 Mino” value [7] was 0.07%. The Total [7] was 0.78%, the “RRT 1.45” value [8] was 0.07% and the “RRT 1.85 MW = 597” value [8] was 0.09%. The Total [8] was 1.12%, the “RRT 1.45” value [9] was 0.09% and the Total [9] was 1.34%. The “RRT 1.85 MW = 597” value [10] was 0.10%, the Total [10] was 2.09% and the “RRT 0.58” value [11] was 0.09%. For the same compound, the “RRT 0.64 9-Amino” value [11] was “BRL (BRL means below reporting limit (meaning less than 0.05% of tigecycline peak))”, the “RRT 0.74 Epimer” value [12] was 0.19% and the Strength [12] was 19.457 mg/mL.

From patent publication US20070026080A1, “Manufacturing process for tigecycline” (Wyeth, priority 2005, published 2007)
